According to US7268152B2, “Glucocorticoid mimetics, methods of making them, pharmaceutical compositions, and uses thereof” (Boehringer Ingelheim Pharmaceuticals, Inc., priority 2002, dated 2007):

These molecules were tested against T1, human glucocorticoid receptor (GR) complex (Homo sapiens, UniProt P04150) (assay: Glucocorticoid receptor competitive binding assay (fluorescence polarization)). Settings: competition with TAMRA-labeled dexamethasone.
T1 construct: made in house; host or cells: insect expression system (baculovirus lysate)
T1 sequence (P04150 1-777): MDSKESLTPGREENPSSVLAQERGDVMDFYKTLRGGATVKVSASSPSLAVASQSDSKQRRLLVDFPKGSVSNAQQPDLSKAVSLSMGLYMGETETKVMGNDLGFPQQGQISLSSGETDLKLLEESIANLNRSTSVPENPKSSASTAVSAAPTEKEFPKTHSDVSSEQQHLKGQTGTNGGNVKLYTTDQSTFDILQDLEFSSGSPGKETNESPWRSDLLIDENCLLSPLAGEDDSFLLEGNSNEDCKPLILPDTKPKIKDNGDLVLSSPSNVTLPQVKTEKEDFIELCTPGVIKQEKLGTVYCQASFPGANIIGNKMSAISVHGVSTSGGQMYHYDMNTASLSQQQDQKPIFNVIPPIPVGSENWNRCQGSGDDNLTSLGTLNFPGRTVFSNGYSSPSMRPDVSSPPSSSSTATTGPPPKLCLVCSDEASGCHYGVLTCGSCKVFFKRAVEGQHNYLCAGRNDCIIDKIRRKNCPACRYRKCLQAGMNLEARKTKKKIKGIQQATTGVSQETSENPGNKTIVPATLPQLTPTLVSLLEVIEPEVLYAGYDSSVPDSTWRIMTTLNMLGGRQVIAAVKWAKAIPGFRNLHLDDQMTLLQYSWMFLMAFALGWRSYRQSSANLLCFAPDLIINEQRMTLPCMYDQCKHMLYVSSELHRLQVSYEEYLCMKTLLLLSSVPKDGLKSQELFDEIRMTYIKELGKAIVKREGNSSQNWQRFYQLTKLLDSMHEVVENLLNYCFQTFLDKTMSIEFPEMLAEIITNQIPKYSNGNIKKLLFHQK
Procedure: Compounds of the invention were evaluated for binding to the steroid receptor by a fluorescence polarization competitive binding assay. Detailed descriptions for preparation of recombinant glucocorticoid receptor (GR) complex used in the assay is described in U.S. provisional application No. 60/291,877, filed May 18, 2001, and incorporated herein by reference in its entirety. Preparation of the tetramethyl rhodamine (TAMRA)-labeled dexamethasone probe was accomplished using a standard literature procedure (M. Pons et al., J. Steroid Biochem., 1985, 22, pp. 267-273).
A. Glucocorticoid Receptor Competitive Binding Assay
Step 1. Characterization of the Fluorescent Probe
The wavelengths for maximum excitation and emission of the fluorescent probe should first be measured. An example of such a probe is rhodamine (TAMRA)-labeled dexamethasone.
The affinity of the probe for the steroid receptor was then determined in a titration experiment. The fluorescence polarization value of the probe in assay buffer was measured on an SLM-8100 fluorometer using the excitation and emission maximum values described above. Aliquots of expression vector lysate were added and fluorescence polarization was measured after each addition until no further change in polarization value was observed. Non-linear least squares regression analysis was used to calculate the dissociation constant of the probe from the polarization values obtained for lysate binding to the probe.
Step 2. Screeningfor Inhibitors of Probe Binding
This assay uses fluorescence polarization (FP) to quantitate the ability of test compounds to compete with tetramethyl rhodamine (TAMRA)-labeled dexamethasone for binding to a human glucocorticoid receptor (GR) complex prepared from an insect expression system. The assay buffer was: 10 mM TES, 50 mM KCl, 20 mM Na2MoO4.2H2O, 1.5 mM EDTA, 0.04% w/v CHAPS, 10% v/v glycerol, 1 mM dithiothreitol, pH 7.4. Test compounds were dissolved to 1 mM in neat DMSO and then further diluted to 10×assay concentration in assay buffer supplemented with 10% v/v DMSO. Test compounds were serially diluted at 10×assay concentrations in 10% DMSO-containing buffer in 96-well polypropylene plates. Binding reaction mixtures were prepared in 96-well black Dynex microtiter plates by sequential addition of the following assay components to each well: […] of 10×test compound solution, 85 μL of GR-containing baculovirus lysate diluted 1:170 in assay buffer, and 50 μL of 15 nM TAMRA-labeled dexamethasone. Positive controls were reaction mixtures containing no test compound; negative controls (blanks) were reaction mixtures containing 0.7 μM to 2 μM dexamethasone. The binding reactions were incubated for 1 hour at room temperature and then read for fluorescence polarization in the LJL Analyst set to 550 nm excitation and 580 nm emission, with the Rhodamine 561 dichroic mirror installed. IC50 values were determined by iterative non-linear curve fitting of the FP signal data to a 4-parameter logistic equation.

IC50, ≤ 0.1 µM:
COc1ccc(F)cc1C(C)(C)CC(O)(Cc1ccc(C(F)(F)F)c(F)c1)C(F)(F)F (stereo not shown)
COc1ccc(F)cc1C(C)(C)CC(O)(Cc1cccc(C#N)c1)C(F)(F)F (stereo not shown) [3-[4-(5-Fluoro-2-methoxyphenyl)-2-hydroxy-4-methyl-2-trifluoromethylpentyl]benzonitrile]
CC(C)(CC(O)(Cc1cc(Cl)cc(Cl)c1)C(F)(F)F)c1cc(F)ccc1O (stereo not shown) [2-[3-(3,5-Dichlorobenzyl)-4,4,4-trifluoro-3-hydroxy-1,1-dimethylbutyl]4-fluorophenol]
COc1ccc(F)cc1C(C)(C)CC(O)(Cc1ccccc1Cl)C(F)(F)F (stereo not shown) [2-(2-Chlorobenzyl)-1,1,1-trifluoro-4-(5-fluoro-2-methoxyphenyl)-4-methylpentan-2-ol]
COc1ccc(F)cc1C(C)(C)CC(O)(Cc1cc(Cl)ccc1F)C(F)(F)F (stereo not shown) [2-(5-Chloro-2-fluorobenzyl)-1,1,1-trifluoro-4-(5-fluoro-2-methoxyphenyl)-4-methylpentan-2-ol]
COc1ccc(F)cc1C(C)(C)CC(O)(Cc1ccc(F)c(Cl)c1)C(F)(F)F (stereo not shown) [2-(3-Chloro-4-fluorobenzyl)-1,1,1-trifluoro-4-(5-fluoro-2-methoxyphenyl)-4-methylpentan-2-ol]
CC(C)(CC(O)(Cc1ccc(Cl)cc1)C(F)(F)F)c1cc(F)ccc1O (stereo not shown) [2-[3-(4-Chlorobenzyl)-4,4,4-trifluoro-3-hydroxy-1,1-dimethylbutyl]-4-fluorophenol]
COc1ccc(F)cc1C(C)(C)CC(O)(Cc1cc(F)cc(C(F)(F)F)c1)C(F)(F)F (stereo not shown) [1,1,1-Trifluoro-4-(5-fluoro-2-methoxyphenyl)-2-(3-fluoro-5-trifluoromethylbenzyl)-4-methylpentan-2-ol]
COc1ccc(F)cc1C(C)(C)CC(O)(Cc1cc(Cl)cc(Cl)c1)C(F)(F)F (stereo not shown) [2-(3,5-Dichlorobenzyl)-1,1,1-trifluoro-4-(5-fluoro-2-methoxyphenyl)-4-methylpentan-2-ol]
COc1ccc(F)cc1C(C)(C)CC(O)(Cc1ccc(-c2ccccc2)cc1)C(F)(F)F (stereo not shown) [2-Biphenyl-4-ylmethyl-1,1,1-trifluoro-4-(5-fluoro-2-methoxyphenyl)-4-methylpentan-2-ol]
CC(C)(CC(O)(Cc1ccc(C#N)cc1)C(F)(F)F)c1cc(F)ccc1O (stereo not shown) [4-[4-(5-Fluoro-2-hydroxyphenyl)-2-hydroxy-4-methyl-2-trifluoromethylpentyl]benzonitrile]
COc1ccc(F)cc1C(C)(C)CC(O)(Cc1ccc(C=O)cc1)C(F)(F)F (stereo not shown)
COc1ccc(F)cc1C(C)(C)CC(O)(Cc1cc(F)cc(F)c1)C(F)(F)F (stereo not shown) [2-(3,5-Difluorobenzyl)-1,1,1-trifluoro-4-(5-fluoro-2-methoxyphenyl)-4-methylpentan-2-ol]
Cc1ccc(F)cc1C(C)(C)CC(O)(Cc1cc(C(F)(F)F)cc(Cl)c1F)C(F)(F)F (stereo not shown) [2-(3-Chloro-2-fluoro-5-trifluoromethylbenzyl)-1,1,1-trifluoro-4-(5-fluoro-2-methylphenyl)-4-methylpentan-2-ol]
COc1ccc(F)cc1C(C)(C)CC(O)(Cc1cc(Cl)cc(Cl)c1Cl)C(F)(F)F (stereo not shown)
COc1ccc(F)cc1C(C)(C)CC(O)(Cc1c(C)ccc2ccccc12)C(F)(F)F (stereo not shown) [1,1,1-Trifluoro-4-(5-fluoro-2-methoxyphenyl)-4-methyl-2-(2-methylnaphthalen-1-ylmethyl)pentan-2-ol]
CC(C)(CC(O)(Cc1cc(C(F)(F)F)cc(Cl)c1F)C(F)(F)F)c1cccc2c1OCC2 (stereo not shown) [2-(3-Chloro-2-fluoro-5-trifluoromethylbenzyl)-4-(2,3-dihydrobenzofuran-7-yl)-1,1,1-trifluoro-4-methylpentan-2-ol]
COc1ccc(F)cc1C(C)(C)CC(O)(Cc1ccc(C)c2ccccc12)C(F)(F)F (stereo not shown) [1,1,1-Trifluoro-4-(5-fluoro-2-methoxyphenyl)-4-methyl-2-(4-methylnaphthalen-1-ylmethyl)pentan-2-ol]
COc1ccccc1C(C)(C)CC(O)(Cc1cc(C)cc(C)c1)C(F)(F)F (stereo not shown) [2-(3,5-Dimethylbenzyl)-1,1,1-tri fluoro-4-(2-methoxyphenyl)-4-methylpentan-2-ol]
CC(C)(CC(O)(Cc1cc(C(F)(F)F)cc(Cl)c1F)C(F)(F)F)c1cc(C#N)cc2c1OCC2 (stereo not shown) [7-[3-(3-Chloro-2-fluoro-5-trifluoromethylbenzyl)-4,4,4-trifluoro-3-hydroxy-1,1-dimethylbutyl]-2,3-dihydrobenzofuran-5-carbonitrile]
CC(C)(CC(O)(Cc1ccccc1)C(F)(F)F)c1ccccc1 (stereo not shown) [2-Benzyl-1,1,1-trifluoro-4-methyl-4-phenylpentan-2-ol]
COc1ccc(F)cc1C(C)(C)CC(O)(Cc1ccc(Cl)c(C(F)(F)F)c1)C(F)(F)F (stereo not shown) [2-(4-Chloro-3-trifluoromethylbenzyl)-1,1,1-trifluoro-4-(5-fluoro-2-methoxyphenyl)-4-methylpentan-2-ol]
COc1ccc(F)cc1C(C)(C)CC(O)(Cc1cc(C(F)(F)F)cc(C(F)(F)F)c1)C(F)(F)F (stereo not shown) [2-(3,5-Bis-trifluoromethylbenzyl)-1,1,1-trifluoro-4-(5-fluoro-2-methoxyphenyl)-4-methylpentan-2-ol]
COc1ccc(F)cc1C(C)(C)CC(O)(Cc1cccc(Cl)c1F)C(F)(F)F (stereo not shown) [2-(3-Chloro-2-fluorobenzyl)-1,1,1-trifluoro-4-(5-fluoro-2-methoxyphenyl)-4-methylpentan-2ol]
Cc1cc(C)cc(CC(O)(CC(C)(C)c2cc(F)ccc2O)C(F)(F)F)c1 (stereo not shown) [2-[3-(3,5-Dimethylbenzyl)-4,4,4-trifluoro-3-hydroxy-1,1-dimethylbutyl]4-fluorophenol]
CC(C)(CC(O)(Cc1ccc(Cl)c(Cl)c1)C(F)(F)F)c1ccccc1 (stereo not shown) [2-(3,4-Dichlorobenzyl)-1,1,1-trifluoro-4-methyl-4-phenylpentan-2-ol]
CCOc1ccc(F)cc1C(C)(C)CC(O)(Cc1cc(C(F)(F)F)cc(Cl)c1F)C(F)(F)F (stereo not shown) [2-(3-Chloro-2-fluoro-5-trifluoromethylbenzyl)-4-(2-ethoxy-5-fluorophenyl)-1,1,1-trifluoro-4-methylpentan-2-ol]
CC(C)(CC(O)(Cc1cc(F)c(F)c(F)c1)C(F)(F)F)c1cc(F)ccc1O (stereo not shown) [4-Fluoro-2-[4,4,4-trifluoro-3-hydroxy-1,1-dimethyl-3-(3,4,5-trifluorobenzyl)butyl]phenol]
CC(C)(CC(O)(Cc1cc(C(F)(F)F)cc(Cl)c1F)C(F)(F)F)c1ccc(Cl)c(Cl)c1 (stereo not shown) [2-(3-Chloro-2-fluoro-5-trifluoromethylbenzyl)-4-(3,4-dichlorophenyl)-1,1,1-trifluoro-4-methylpentan-2-ol]
Cc1ccc(F)cc1C(C)(C)CC(O)(Cc1ccc(Cl)c(Cl)c1)C(F)(F)F (stereo not shown) [2-(3,4-Dichlorobenzyl)-1,1,1-trifluoro-4-(5-fluoro-2-methylphenyl)-4-methylpentan-2-ol]
Cc1ccccc1CC(O)(CC(C)(C)c1cc(F)ccc1O)C(F)(F)F (stereo not shown) [4-Fluoro-2-[4,4,4-trifluoro-3-hydroxy-1,1-dimethyl-3-(2-methylbenzyl)butyl]phenol]
